How the values were obtained:
smallflower flatsedge = assay: Test B flood test smallflower flatsedge; assay type: in vivo, Cyperus difformis
Outline: (§1)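 Plants were grown to the 2-leaf stage before treatment with test chemical, then held in a greenhouse for twelve to sixteen days. Injury was visually rated against untreated controls on a 0–10 scale, where 0 is no effect and 10 is complete control.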

purple nutsedge = assay: Test B pre/postemergence purple nutsedge; assay type: in vivo, Cyperus rotundus
Outline: (§2)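 Response is a visual 0-to-10 score relative to untreated plants, where 0 means no effect and 10 means complete control, taken twelve to sixteen days after application. Treatments went onto soil at planting and onto foliage of 1- to 4-leaf plants, using a surfactant-containing non-phytotoxic solvent.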

morningglory = assay: Test B pre/postemergence morningglory; assay type: in vivo, Ipomoea hederacea
Outline: as §2

rice = assay: Test B flood test rice; assay type: in vivo, Oryza sativa
Outline: as §1

duck salad = assay: Test B flood test duck salad; assay type: in vivo, Heteranthera limosa
Outline: as §1

pigweed = assay: Test B pre/postemergence pigweed; assay type: in vivo, Amaranthus retroflexus
Outline: as §2

cocklebur = assay: Test B pre/postemergence cocklebur; assay type: in vivo, Xanthium strumarium
Outline: as §2

sugar beet = assay: Test B pre/postemergence sugar beet; assay type: in vivo, Beta vulgaris
Outline: as §2

corn = assay: Test B pre/postemergence corn; assay type: in vivo, Zea mays
Outline: as §2

velvetleaf = assay: Test B pre/postemergence velvetleaf; assay type: in vivo, Abutilon theophrasti
Outline: as §2

wheat = assay: Test B pre/postemergence wheat; assay type: in vivo, Triticum aestivum
Outline: as §2

wild oat = assay: Test B pre/postemergence wild oat; assay type: in vivo, Avena fatua
Outline: as §2

rape = assay: Test B pre/postemergence rape; assay type: in vivo, Brassica napus
Outline: as §2

giant foxtail = assay: Test B pre/postemergence giant foxtail; assay type: in vivo, Setaria faberii
Outline: as §2

crabgrass = assay: Test B pre/postemergence crabgrass; assay type: in vivo, Digitaria sanguinalis
Outline: as §2

soybean = assay: Test B pre/postemergence soybean; assay type: in vivo, Glycine max
Outline: as §2

[1] = Postemergence, Rate 62 g/ha, scale 0 to 10, 0 is no effect, 10 is complete control
[2] = Rate 125 g/ha, Postemergence section (flood test species), scale 0 to 10, 0 no effect, 10 complete control
[3] = flood test, listed under Postemergence, Rate 250 g/ha, scale 0 to 10, 0 no effect, 10 complete control
[4] = Postemergence, Rate 250 g/ha, scale 0 to 10, 0 no effect, 10 complete control
[5] = Preemergence, Rate 62 g/ha, scale 0 to 10, 0 is no effect, 10 is complete control
[6] = Preemergence, Rate 125 g/ha, scale 0 to 10 (0 no effect, 10 complete control)
[7] = Preemergence, Rate 250 g/ha, scale of 0 to 10 where 0 is no effect and 10 is complete control
[8] = Preemergence, Rate 500 g/ha, scale 0 (no effect) to 10 (complete control)
[9] = Rate 125 g/ha, Postemergence, scale 0 to 10, 0 no effect, 10 complete control
[10] = Rate 500 g/ha, Postemergence, 0 to 10 scale (0 no effect, 10 complete control)
[11] = Rate 500 g/ha, Postemergence section of Table B, 0 to 10 scale (0 no effect, 10 complete control)

Structure (SMILES): CCc1ccccc1-n1c(=O)on(C(=O)N(c2ccc(F)cc2)C(C)C)c1=O [Compound 34]
- S. Flatsedge plant response rating (smallflower flatsedge; [1]): 0
- S. Flatsedge plant response rating (smallflower flatsedge; [2]): 0
- S. Flatsedge plant response rating (smallflower flatsedge; [3]): 0
- Nutsedge plant response rating (purple nutsedge; [1]): 0
- Nutsedge plant response rating (purple nutsedge; [4]): 0
- Plant response rating, Nutsedge (purple nutsedge; [5]): 0
- Plant response rating, Nutsedge (purple nutsedge; [6]): 0
- Plant response rating, Nutsedge (purple nutsedge; [7]): 0
- Nutsedge plant response rating (purple nutsedge; [8]): 0
- Nutsedge plant response rating (purple nutsedge; [9]): 0
- Nutsedge plant response rating (purple nutsedge; [10]): 0
- Morningglory plant response rating (morningglory; [1]): 1
- Morningglory plant response rating (morningglory; [4]): 5
- Plant response rating, Morningglory (morningglory; [5]): 0
- Plant response rating, Morningglory (morningglory; [6]): 0
- Plant response rating, Morningglory (morningglory; [7]): 0
- Morningglory plant response rating (morningglory; [8]): 0
- Morningglory plant response rating (morningglory; [9]): 2
- Morningglory plant response rating (morningglory; [10]): 8
- Rice plant response rating (rice; [1]): 0
- Rice plant response rating (rice; [2]): 0
- Rice plant response rating (rice; [11]): 0
- Rice plant response rating (rice; [3]): 0
- Ducksalad plant response rating (duck salad; [1]): 0
- Ducksalad plant response rating (duck salad; [2]): 0
- Ducksalad plant response rating (duck salad; [11]): 0
- Ducksalad plant response rating (duck salad; [3]): 0
- Redroot pigweed plant response rating (pigweed; [1]): 0
- Redroot pigweed plant response rating (pigweed; [4]): 6
- Plant response rating, Redroot pigweed (pigweed; [5]): 0
- Plant response rating, Redroot pigweed (pigweed; [6]): 2
- Plant response rating, Redroot pigweed (pigweed; [7]): 6
- Redroot pigweed plant response rating (pigweed; [8]): 6
- Redroot pigweed plant response rating (pigweed; [9]): 0
- Redroot pigweed plant response rating (pigweed; [10]): 7
- Cocklebur plant response rating (cocklebur; [1]): 0
- Cocklebur plant response rating (cocklebur; [4]): 0
- Plant response rating, Cocklebur (cocklebur; [5]): 0
- Plant response rating, Cocklebur (cocklebur; [6]): 0
- Plant response rating, Cocklebur (cocklebur; [7]): 0
- Cocklebur plant response rating (cocklebur; [8]): 0
- Cocklebur plant response rating (cocklebur; [9]): 0
- Cocklebur plant response rating (cocklebur; [10]): 4
- Sugarbeets plant response rating (sugar beet; [1]): 0
- Sugarbeets plant response rating (sugar beet; [4]): 0
- Plant response rating, Sugarbeets (sugar beet; [5]): 0
- Plant response rating, Sugarbeets (sugar beet; [6]): 0
- Plant response rating, Sugarbeets (sugar beet; [7]): 0
- Sugarbeets plant response rating (sugar beet; [8]): 4
- Sugarbeets plant response rating (sugar beet; [9]): 0
- Corn plant response rating (corn; [1]): 0
- Corn plant response rating (corn; [4]): 0
- Plant response rating, Corn (corn; [5]): 0
- Plant response rating, Corn (corn; [6]): 0
- Plant response rating, Corn (corn; [7]): 0
- Corn plant response rating (corn; [8]): 0
- Corn plant response rating (corn; [9]): 0
- Corn plant response rating (corn; [10]): 0
- Velvetleaf plant response rating (velvetleaf; [1]): 0
- Velvetleaf plant response rating (velvetleaf; [4]): 2
- Plant response rating, Velvetleaf (velvetleaf; [5]): 0
- Plant response rating, Velvetleaf (velvetleaf; [6]): 0
- Plant response rating, Velvetleaf (velvetleaf; [7]): 0
- Velvetleaf plant response rating (velvetleaf; [8]): 2
- Velvetleaf plant response rating (velvetleaf; [9]): 0
- Wheat plant response rating (wheat; [1]): 0
- Wheat plant response rating (wheat; [4]): 0
- Plant response rating, Wheat (wheat; [5]): 0
- Plant response rating, Wheat (wheat; [6]): 0
- Plant response rating, Wheat (wheat; [7]): 0
- Wheat plant response rating (wheat; [8]): 2
- Wheat plant response rating (wheat; [9]): 0
- Wild oats plant response rating (wild oat; [1]): 0
- Wild oats plant response rating (wild oat; [4]): 0
- Plant response rating, Wild oats (wild oat; [6]): 0
- Plant response rating, Wild oats (wild oat; [7]): 2
- Wild oats plant response rating (wild oat; [8]): 7
- Wild oats plant response rating (wild oat; [9]): 0
- Rape plant response rating (rape; [1]): 0
- Rape plant response rating (rape; [4]): 0
- Plant response rating, Rape (rape; [5]): 0
- Plant response rating, Rape (rape; [6]): 0
- Plant response rating, Rape (rape; [7]): 0
- Rape plant response rating (rape; [8]): 3
- Rape plant response rating (rape; [9]): 0
- Rape plant response rating (rape; [10]): 0
- Giant foxtail plant response rating (giant foxtail; [1]): 0
- Giant foxtail plant response rating (giant foxtail; [4]): 2
- Plant response rating, Giant foxtail (giant foxtail; [5]): 2
- Plant response rating, Giant foxtail (giant foxtail; [6]): 6
- Plant response rating, Giant foxtail (giant foxtail; [7]): 10
- Giant foxtail plant response rating (giant foxtail; [8]): 10
- Giant foxtail plant response rating (giant foxtail; [9]): 0
- Giant foxtail plant response rating (giant foxtail; [10]): 8
- Crabgrass plant response rating (crabgrass; [1]): 0
- Crabgrass plant response rating (crabgrass; [4]): 3
- Plant response rating, Crabgrass (crabgrass; [5]): 7
- Plant response rating, Crabgrass (crabgrass; [6]): 7
- Plant response rating, Crabgrass (crabgrass; [7]): 10
- Crabgrass plant response rating (crabgrass; [8]): 10
- Crabgrass plant response rating (crabgrass; [9]): 0
- Crabgrass plant response rating (crabgrass; [10]): 9
- Soybean plant response rating (soybean; [1]): 0
- Soybean plant response rating (soybean; [4]): 0
- Plant response rating, Soybean (soybean; [5]): 0
- Plant response rating, Soybean (soybean; [6]): 0
- Plant response rating, Soybean (soybean; [7]): 0
- Soybean plant response rating (soybean; [8]): 0
- Soybean plant response rating (soybean; [9]): 0
